Laboratory results taken from ChEMBL document CHEMBL1201862, “PubChem BioAssay data set” (2004).
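48-hour exposure; five concentrations; linearly interpolated endpoints. GI50: concentration for 50% inhibition of growth.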 Activity calls are given as the source filed them. No stated cut-off is given here; in the data, active = GI50 up to about 1.1 µM and inactive = higher.

What was measured:
Assay in all cases: NCI tumour cell line growth inhibition, 48 h
KM12 = system: KM12
SNB-19 = system: SNB-19
UACC-257 = system: UACC-257
TK-10 = system: TK-10
RXF 393 = system: RXF 393
MDA-MB-435 = system: MDA-MB-435
786-0 = system: 786-0
CCRF-CEM = system: CCRF-CEM
PC-3 = system: PC-3
MDA-N = system: MDA-N
COLO 205 = system: COLO 205
CAKI-1 = system: CAKI-1
HT-29 = system: HT-29
M14 = system: M14
SW-620 = system: SW-620
NCI-H226 = system: NCI-H226
MCF7 = system: MCF7
LOX IMVI = system: LOX IMVI
SF-295 = system: SF-295
Hs-578T = system: Hs-578T

With O=C1C(Cl)=C(Nc2ccc(S(=O)(=O)Nc3ccccn3)cc2)C(=O)c2ccccc21 the GI50 (KM12) was 13.1 µM (inactive), the GI50 (SNB-19) was 16.4 µM (inactive) and the GI50 (UACC-257) was 5 µM (inactive). The GI50 (TK-10) was 7.98 µM (inactive), the GI50 (RXF 393) was 7.35 µM (inactive) and the GI50 (MDA-MB-435) was 6.55 µM (inactive). The GI50 (786-0) was 8.22 µM (inactive), the GI50 (CCRF-CEM) was 3.68 µM (inactive) and the GI50 (PC-3) was 12.8 µM (inactive). For the same molecule, the GI50 (MDA-N) was 6.46 µM (inactive), the GI50 (COLO 205) was 13.9 µM (inactive) and the GI50 (CAKI-1) was 16.8 µM (inactive). The GI50 (HT-29) was 7.5 µM (inactive), the GI50 (M14) was 5.93 µM (inactive) and the GI50 (SW-620) was 5.78 µM (inactive). The GI50 (NCI-H226) was 20.7 µM (inactive), the GI50 (MCF7) was 5.15 µM (inactive) and the GI50 (LOX IMVI) was 1.78 µM (inactive). For the same molecule, the GI50 (SF-295) was 15.3 µM (inactive) and the GI50 (Hs-578T) was 13.1 µM (inactive).
CCC/C(Cl)=N\OC(=O)Nc1ccc(F)cc1 was tested, and the GI50 (KM12) was 20.6 µM (inactive), the GI50 (SNB-19) was 19.2 µM (inactive) and the GI50 (UACC-257) was 16.7 µM (inactive). The GI50 (TK-10) was 15.7 µM (inactive), the GI50 (RXF 393) was 18.4 µM (inactive) and the GI50 (MDA-MB-435) was 16.5 µM (inactive). For the same molecule, the GI50 (786-0) was 6.5 µM (inactive), the GI50 (CCRF-CEM) was 1.63 µM (inactive) and the GI50 (PC-3) was 17.3 µM (inactive). For the same molecule, the GI50 (MDA-N) was 16.3 µM (inactive), the GI50 (COLO 205) was 3.16 µM (inactive) and the GI50 (CAKI-1) was 1.91 µM (inactive). For the same molecule, the GI50 (HT-29) was 28.3 µM (inactive), the GI50 (M14) was 14.6 µM (inactive) and the GI50 (SW-620) was 7 µM (inactive). For the same molecule, the GI50 (NCI-H226) was 19.7 µM (inactive), the GI50 (MCF7) was 20 µM (inactive) and the GI50 (LOX IMVI) was 4.15 µM (inactive). For the same molecule, the GI50 (SF-295) was > 100 µM (inactive) and the GI50 (Hs-578T) was 41.5 µM (inactive).
Cc1cn2c(/C=N/NC(=N)N)c(-c3ccc([N+](=O)[O-])cc3)nc2s1 was tested, and the GI50 (KM12) was 0.401 µM (active), the GI50 (SNB-19) was 0.357 µM (active) and the GI50 (UACC-257) was 1.18 µM (inactive). The GI50 (TK-10) was 1.57 µM (inactive), the GI50 (RXF 393) was 0.914 µM (active) and the GI50 (MDA-MB-435) was 1.57 µM (inactive). The GI50 (786-0) was 0.256 µM (active), the GI50 (CCRF-CEM) was 0.194 µM (active) and the GI50 (PC-3) was 1.4 µM (inactive). The GI50 (MDA-N) was 0.425 µM (active), the GI50 (COLO 205) was 0.685 µM (active) and the GI50 (CAKI-1) was 2.61 µM (inactive). The GI50 (HT-29) was 1.32 µM (inactive), the GI50 (M14) was 1.17 µM (inactive) and the GI50 (SW-620) was 0.175 µM (active). For the same molecule, the GI50 (NCI-H226) was 1.87 µM (inactive), the GI50 (MCF7) was 0.252 µM (active) and the GI50 (LOX IMVI) was 0.352 µM (active). For the same molecule, the GI50 (SF-295) was 1.46 µM (inactive) and the GI50 (Hs-578T) was 0.935 µM (active).
With CC1=C(C(=O)Nc2ccccc2)C(c2ccc(C)o2)C(C#N)=C(SCc2ccccc2)N1 (stereo not given) the GI50 (KM12) was 10.9 µM (inactive), the GI50 (SNB-19) was > 100 µM (inactive) and the GI50 (UACC-257) was > 100 µM (inactive). For the same molecule, the GI50 (TK-10) was > 65.3 µM (inactive), the GI50 (RXF 393) was > 37.6 µM (inactive) and the GI50 (MDA-MB-435) was 4.58 µM (inactive). For the same molecule, the GI50 (786-0) was > 100 µM (inactive), the GI50 (CCRF-CEM) was 13.2 µM (inactive) and the GI50 (PC-3) was > 55.8 µM (inactive). For the same molecule, the GI50 (MDA-N) was 5.38 µM (inactive), the GI50 (COLO 205) was 31.3 µM (inactive) and the GI50 (CAKI-1) was > 100 µM (inactive). The GI50 (HT-29) was 34.9 µM (inactive), the GI50 (M14) was > 100 µM (inactive) and the GI50 (SW-620) was > 58.6 µM (inactive). The GI50 (NCI-H226) was > 100 µM (inactive), the GI50 (MCF7) was 19.8 µM (inactive) and the GI50 (LOX IMVI) was > 100 µM (inactive). The GI50 (SF-295) was 96.2 µM (inactive) and the GI50 (Hs-578T) was > 87.3 µM (inactive).
In the case of CCCCn1cnc2c(c(CC#N)nn2-c2ccccc2)c1=N, the GI50 (KM12) is reported as 43 µM (inactive), the GI50 (SNB-19) is reported as > 100 µM (inactive) and the GI50 (UACC-257) is reported as 35.4 µM (inactive). For the same molecule, the GI50 (TK-10) was 64.7 µM (inactive), the GI50 (RXF 393) was 70.1 µM (inactive) and the GI50 (MDA-MB-435) was 32.3 µM (inactive). The GI50 (786-0) was 57.1 µM (inactive), the GI50 (CCRF-CEM) was 47.6 µM (inactive) and the GI50 (PC-3) was 36.8 µM (inactive). The GI50 (MDA-N) was 38.1 µM (inactive), the GI50 (COLO 205) was 30.7 µM (inactive) and the GI50 (CAKI-1) was > 100 µM (inactive). The GI50 (HT-29) was 33.4 µM (inactive), the GI50 (M14) was 53.2 µM (inactive) and the GI50 (SW-620) was 41.9 µM (inactive). The GI50 (NCI-H226) was 79.1 µM (inactive), the GI50 (MCF7) was 43.2 µM (inactive) and the GI50 (LOX IMVI) was 39.3 µM (inactive). For the same molecule, the GI50 (SF-295) was 30.4 µM (inactive) and the GI50 (Hs-578T) was 39.9 µM (inactive).
In the case of C/C=C/C(O)P1(=O)N(Cc2ccccc2)[C@@H]2CCCC[C@H]2N1Cc1ccccc1 (stereo not given in full), the GI50 (KM12) is reported as > 25 µM (inactive), the GI50 (SNB-19) is reported as > 25 µM (inactive) and the GI50 (UACC-257) is reported as > 25 µM (inactive). For the same molecule, the GI50 (TK-10) was > 25 µM (inactive), the GI50 (RXF 393) was > 25 µM (inactive) and the GI50 (MDA-MB-435) was > 25 µM (inactive). For the same molecule, the GI50 (786-0) was > 25 µM (inactive), the GI50 (CCRF-CEM) was > 25 µM (inactive) and the GI50 (PC-3) was > 25 µM (inactive). For the same molecule, the GI50 (MDA-N) was > 25 µM (inactive), the GI50 (COLO 205) was > 25 µM (inactive) and the GI50 (CAKI-1) was > 25 µM (inactive). The GI50 (HT-29) was > 25 µM (inactive), the GI50 (M14) was > 25 µM (inactive) and the GI50 (SW-620) was > 25 µM (inactive). For the same molecule, the GI50 (NCI-H226) was > 25 µM (inactive), the GI50 (MCF7) was > 25 µM (inactive) and the GI50 (LOX IMVI) was > 25 µM (inactive). The GI50 (SF-295) was > 25 µM (inactive) and the GI50 (Hs-578T) was > 25 µM (inactive).
